Reference: paper PMC7662308, “Hevein-Like Antimicrobial Peptides Wamps: Structure–Function Relationship in Antifungal Activity and Sensitization of Plant Pathogenic Fungi to Tebuconazole by WAMP-2-Derived Peptides” (International Journal of Molecular Sciences, 2020)
Converted amounts (≈) assume the structure as drawn. Read-outs that look alike come from different tables or passages of the source. Residues, ends and D or L forms follow the SMILES beside them.

How the values were obtained:
B. sorokiniana [1] = type: cell-based, Bipolaris sorokiniana
Text: (§1) Conidia of Fusarium spp., A. alternata, B. sorokiniana, and C. cucumerinum were collected from the surface of their colonies on potato dextrose agar by flooding the mycelium with sterilized distilled water (SDW) and gently rubbing with a glass rod, while P. nodorum spores were obtained by washing off wheat kernels infested with the pathogen. The spores (conidia) were suspended in SDW (control) or in SDW-dissolved WAMPs, WAMP-2-derived peptides, the fungicide or their mixtures to a final concentration of 10^4–10^5 spores/mL and incubated at 20–22 °C for 5–6 or 12–16 h depending on the pathogen species. The number of germinated and non-germinated spores (500 ones of each pathogen per treatment) was counted in wells of a polystyrene culture plate using an inverted microscope followed by calculation of the percent of inhibition of the spore germination as compared to control.
(§2) For each pathogen, tests on evaluation of antifungal or sensitizing activity of WAMP homologues or their peptides (three replications per treatment, 500 counted conidia in each one) included at least two independent experimental series. Mean values, standard deviations (SD), standard errors (SE), and the significance of differences (p ≤ 0.05) of the means between treatments and controls (t-test for the independent variables) were determined using […] v. 6.1 software (StatSoft Inc., Tulsa, OK, USA).

A. alternata [2] = type: cell-based, Alternaria alternata
Text: as §1, §2

C. cucumerinum = type: cell-based, Cladosporium cucumerinum
Text: as §1, §2

F. oxysporum = type: cell-based, Fusarium oxysporum
Text: as §1, §2

F. culmorum [3] = test: Inhibition of spore (conidia) germination, microplate assay; type: cell-based, Fusarium culmorum; settings: for IC50: WAMP-2-derived synthetic peptides, spore germination; for Inhibition of conidium germination: peptide alone, 400 μg/mL, mean of three experiments
Text: as §1, §2

F. avenaceum [4] = test: as above; type: cell-based, Fusarium avenaceum; settings: for IC50: WAMP-2-derived synthetic peptides, spore germination
Text: as §1, §2

P. nodorum [5] = type: cell-based, Parastagonospora nodorum
Text: as §1, §2

B. sorokiniana [6] = test: Checkerboard sensitization assay, WAMP-2 fragment with Folicur EC 250 (tebuconazole), spore germination; type: cell-based, Bipolaris sorokiniana; settings: effective tebuconazole–WAMP-2 fragment composition; FFCI ≤ 0.5 = synergy; MFC by probit analysis
Text: as §1, with “control. […]” for “control.”
(§3) The fragments were tested at concentrations ranging between 5, 10 and 50 μg/mL against B. sorokiniana, A. alternata or other cereal-pathogenic fungi (F. culmorum, F. avenacenum and P. nodorum), respectively, to concentrations that produced the inhibitory effect of ≤50%. The sub-fungicidal concentrations of tebuconazole were preliminarily determined for each pathogen through serial double or fivefold dilutions. […]

F. culmorum [7] = test: as above; type: cell-based, Fusarium culmorum; settings: effective tebuconazole–WAMP-2 fragment composition; FFCI ≤ 0.5 = synergy; MFC by probit analysis
Text: as §1, with “control. […]” for “control.”
as §3

F. avenaceum [8] = test: as above; type: cell-based, Fusarium avenaceum; settings: effective tebuconazole–WAMP-2 fragment composition; FFCI ≤ 0.5 = synergy; MFC by probit analysis
Text: as §1, with “control. […]” for “control.”
as §3

A. alternata [9] = test system: A. alternata
Text: as §1, with “control. […]” for “control.”
as §3

P. nodorum [10] = test: Checkerboard sensitization assay, WAMP-2 fragment with Folicur EC 250 (tebuconazole), spore germination; type: cell-based, Parastagonospora nodorum; settings: effective tebuconazole–WAMP-2 fragment composition; FFCI ≤ 0.5 = synergy; MFC by probit analysis
Text: as §1, with “control. […]” for “control.”
as §3

[11] = WAMP-2-derived synthetic peptides, spore germination
[12] = peptide alone, 400 μg/mL, mean of three experiments

SMILES	IC50 (F. culmorum [3]) [µg/mL]	Inhibition of conidium germination (F. culmorum [3]) [%]	IC50 (F. avenaceum [4]) [µg/mL]	IC50 (B. sorokiniana [1]) [µg/mL]	IC50 (A. alternata [2]) [µg/mL]	IC50 (C. cucumerinum) [µg/mL]	IC50 (F. oxysporum) [µg/mL]	IC50 (P. nodorum [5]) [µg/mL]	further results
C[C@H](NC(=O)[C@H](CC(=O)O)NC(=O)CNC(=O)[C@H](CO)NC(=O)CNC(=O)[C@H](CS)NC(=O)[C@H](Cc1ccccc1)NC(=O)CNC(=O)[C@H](Cc1ccc(O)cc1)NC(=O)[C@H](CCCCN)NC(=O)CNC(=O)[C@H](CS)NC(=O)[C@@H](N)CS)C(=O)N[C@@H](Cc1ccc(O)cc1)C(=O)N[C@@H](CS)C(=O)O [WAMP-G2] (H-CCGKYGFCGSGDAYC-OH; N-terminus and C-terminus assumed)	>700	26.2	602.8 ± 3.1 (≈ 393 µM)	–	–	–	–	–	IC50 (B. sorokiniana [1]; [11]): 195.2 ± 36.8 µg/mL (≈ 127 µM); IC50 (A. alternata [2]; [11]): 145.6 ± 29.4 µg/mL (≈ 94.9 µM); Inhibition of conidium germination (A. alternata [2]; [12]): 83.8%; IC50 (C. cucumerinum; [11]): 410.2 ± 29.1 µg/mL (≈ 267 µM); IC50 (F. oxysporum; [11]): 391.2 ± 34.2 µg/mL (≈ 255 µM); IC50 (P. nodorum [5]; [11]): 424.1 ± 12.1 µg/mL (≈ 277 µM); FFCI (Fractional Fungicidal Concentration Index) (B. sorokiniana [6]): 0.13; FFCI (Fractional Fungicidal Concentration Index) (F. culmorum [7]): 0.02; FFCI (Fractional Fungicidal Concentration Index) (F. avenaceum [8]): 0.03; type of peptide–fungicide interaction (A. alternata [9]; compositions 100 + 0.05 and 100 + 0.1 µg/mL (two of nine)): additive effect; FFCI (Fractional Fungicidal Concentration Index) (A. alternata [9]; effective tebuconazole–WAMP-2 fragment composition, FFCI ≤ 0.5 = synergy, MFC by probit analysis): 0.05; FFCI (Fractional Fungicidal Concentration Index) (P. nodorum [10]): 0.04
C[C@H](N)C(=O)N[C@@H](CCC(N)=O)C(=O)N[C@@H](CCCNC(=N)N)C(=O)N[C@@H](CS)C(=O)NCC(=O)N[C@@H](CC(=O)O)C(=O)N[C@@H](CCC(N)=O)C(=O)N[C@@H](C)C(=O)N[C@@H](CCCNC(=N)N)C(=O)NCC(=O)N[C@@H](C)C(=O)N[C@@H](CCCCN)C(=O)N[C@@H](CS)C(=O)O [WAMP-N] (H-AQRCGDQARGAKC-OH)	332.4 ± 26.1 (≈ 244 µM)	–	>700	72.9 ± 12.4 (≈ 53.5 µM)	102.6 ± 19.6 (≈ 75.2 µM)	280.2 ± 29.7 (≈ 205 µM)	238.0 ± 32.4 (≈ 175 µM)	220.2 ± 13.5 (≈ 161 µM)	Inhibition of conidium germination (F. avenaceum [4]; [12]): 40.4%
CC(C)C[C@H](N)C(=O)N[C@@H](CS)C(=O)N[C@@H](CS)C(=O)NCC(=O)N[C@@H](CCCCN)C(=O)N[C@@H](Cc1ccc(O)cc1)C(=O)NCC(=O)N[C@@H](Cc1ccccc1)C(=O)N[C@@H](CS)C(=O)NCC(=O)N[C@@H](CO)C(=O)NCC(=O)O [WAMP-G1] (H-LCCGKYGFCGSG-OH)	>700	–	–	273.1 ± 45.7 (≈ 229 µM)	>700	>700	>700	>700	–
N=C(N)NCCC[C@H](NC(=O)[C@H](CS)NC(=O)CNC(=O)[C@H](CCCNC(=N)N)NC(=O)[C@H](CS)NC(=O)[C@H](CCC(N)=O)NC(=O)[C@H](CO)NC(=O)[C@H](CCC(N)=O)NC(=O)[C@H](CS)NC(=O)[C@H](CO)NC(=O)CNC(=O)[C@H](CCCCN)NC(=O)CN)C(=O)O [WAMP-C] (H-GKGSCQSQCRGCR-OH)	>700	23	–	429.5 ± 51.5 (≈ 314 µM)	550.4 ± 41.3 (≈ 402 µM)	5.3 ± 0.1 (≈ 3.87 µM)	>700	329.6 ± 7.9 (≈ 241 µM)	–
